{"source": "patent US20180228145A1", "about": "“ABSORBENT BINDER COMPOSITION” (Kimberly-Clark Worldwide, Inc., priority 2015, published 2018)", "test_system": "E. coli", "experiment": "Kirby-Bauer Zone of Inhibition test (AATCC 147-1998), impregnated test wafers on agar plate", "type": "cell-based", "settings": "50 ml FAB, 1.1 g calcium chloride plus antimicrobial agent; impregnated wafer", "procedure": "A variety of absorbent binder compositions were formulated to contain the FAB superabsorbent polymer material, calcium chloride, and an antimicrobial agent. The absorbent binder composition contained 50 ml FAB and 1.1 g (10 mmole) calcium chloride, and the antimicrobial agent as noted in Table 2 below. The absorbent binder compositions were then analyzed according to the Kirby-Bauer Antibiotic test method which is a Zone of Inhibition test method (This test method is also known by the American Association of Textile Chemists and Colorists (AATCC) as test method 147-1998.). In this example, the antimicrobial agents incorporated into an absorbent binder composition were Benzalkonium chloride, hydrogen peroxide, and a combination of the Benzalkonium chloride and hydrogen peroxide. According to the test method, the absorbent binder compositions were then brought into contact with test wafers to impregnate the test wafers with the absorbent binder compositions. The absorbent binder composition-impregnated test wafers were then brought into contact with various pathogenic bacteria on an agar plate and the agar plates were then left to incubate according to the test method. Following incubation, the distance between the wafers and the growth of bacteria was measured."}
{"smiles": "CN[C@H](CC(C)C)C(=O)N[C@H]1C(=O)N[C@@H](CC(N)=O)C(=O)N[C@H]2C(=O)N[C@H]3C(=O)N[C@H](C(=O)N[C@H](C(=O)O)c4cc(O)cc(O)c4-c4cc3ccc4O)[C@H](O)c3ccc(c(Cl)c3)Oc3cc2cc(c3O[C@@H]2O[C@H](CO)[C@@H](O)[C@H](O)[C@H]2O[C@H]2C[C@](C)(N)[C@H](O)[C@H](C)O2)Oc2ccc(cc2Cl)[C@H]1O", "note": "[vancomycin wafer, vancomycin]", "values": [{"measurement": "E. coli Zone of Inhibition", "result": 1.9, "unit": "cm"}]}
